From patent publication US10059713B2 (Takeda Pharmaceutical Company Limited, priority 2014, dated 2018)

Target: human GPR43 (Homo sapiens (Human), UniProt O15552)
Test: Ca-Flux functional assay: determination of agonist/positive allosteric modulator (PAM) activity
Format: cell-based
Conditions: CHO-K1 Gα16 cells stably expressing human GPR43; compound added with EC20 sodium acetate; intracellular Ca2+ by FLIPR; does not distinguish agonist from PAM
Outline: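 Agonist or PAM activity read as intracellular Ca2+ rise by FLIPR after adding compound plus EC20 acetate, acetate EC20 set from a prior curve. Cells: CHO-K1 Gα16 with stable human GPR43. EC50 from ten-point half-log curves starting 10 μM.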

human GPR43, sequence (O15552 whole entry): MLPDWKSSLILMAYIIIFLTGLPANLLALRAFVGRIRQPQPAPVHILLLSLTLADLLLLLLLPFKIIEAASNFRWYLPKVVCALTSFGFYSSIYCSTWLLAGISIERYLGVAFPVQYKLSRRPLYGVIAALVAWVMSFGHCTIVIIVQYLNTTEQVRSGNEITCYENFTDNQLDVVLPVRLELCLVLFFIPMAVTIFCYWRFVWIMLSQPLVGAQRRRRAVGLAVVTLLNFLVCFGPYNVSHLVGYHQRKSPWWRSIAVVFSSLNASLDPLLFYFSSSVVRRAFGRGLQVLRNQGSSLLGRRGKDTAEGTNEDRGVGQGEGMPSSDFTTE

EC50	Structure (SMILES)
818 nM	COCC1CCN(c2ncnc3c(S(=O)(=O)c4ccccc4)c(N)[nH]c23)CC1 [Example 112, 7-(benzenesulfonyl)-4-[4-(methoxymethyl)piperidin-1-yl]-5H-pyrrolo[3,2-d]pyrimidin-6-amine]
5520 nM	CC1CN(c2ncnc3c(S(=O)(=O)Cc4ccccc4)c(N)[nH]c23)CCO1 (stereo not shown) [Example 125, 4-(2-methylmorpholin-4-yl)-7-phenylmethanesulfonyl-5H-pyrrolo[3,2-d]pyrimidin-6-amine]
3 nM	Cc1nc(N2CCOC3(CC3)C2)c2[nH]c(N)c(S(=O)(=O)c3ccccc3F)c2n1 [Example 208, 7-(2-fluorobenzenesulfonyl)-2-methyl-4-{4-oxa-7-azaspiro[2.5]octan-7-yl}-5H-pyrrolo[3,2-d]pyrimidin-6-amine]
29 nM	Cc1nc(OC2CCC(F)(F)CC2)c2[nH]c(N)c(S(=O)(=O)c3ccccc3)c2n1 [Example 254, 7-(benzenesulfonyl)-4-[(4,4-difluorocyclohexyl)oxy]-2-methyl-5H-pyrrolo[3,2-d]pyrimidin-6-amine]
19 nM	C[C@H]1CN(c2ncnc3c(S(=O)(=O)c4ccccc4)c(N)[nH]c23)CCO1 [Example 86, 7-(benzenesulfonyl)-4-[(2S)-2-methylmorpholin-4-yl]-5H-pyrrolo[3,2-d]pyrimidin-6-amine]
553 nM	C=C(C)c1ncnc2c(S(=O)(=O)c3ccc(OC)cc3)c(N)[nH]c12 [Example 71, 7-(4-methoxybenzenesulfonyl)-4-(prop-1-en-2-yl)-5H-pyrrolo[3,2-d]pyrimidin-6-amine]
125 nM	CCC1CN(c2ncnc3c(S(=O)(=O)c4ccc(OC)cc4)c(N)[nH]c23)CCO1 (stereo not shown) [Example 190, 4-(2-ethylmorpholin-4-yl)-7-(4-methoxybenzenesulfonyl)-5H-pyrrolo[3,2-d]pyrimidin-6-amine]
5250 nM	Nc1[nH]c2c(O[C@@H]3CCOC3)ncnc2c1S(=O)(=O)c1ccccc1 [Example 159, 7-(benzenesulfonyl)-4-[(3R)-oxolan-3-yloxy]-5H-pyrrolo[3,2-d]pyrimidin-6-amine]
18 nM	Nc1[nH]c2c(N3CCC(F)(F)CC3)ccnc2c1S(=O)(=O)c1ccccc1 [Example 219, 3-(benzenesulfonyl)-7-(4,4-difluoropiperidin-1-yl)-1H-pyrrolo[3,2-b]pyridin-2-amine]
364 nM	CC1(COc2ncnc3c(S(=O)(=O)c4ccccc4)c(N)[nH]c23)CC1 [Example 173, 7-(benzenesulfonyl)-4-[(1-methylcyclopropyl)methoxy]-5H-pyrrolo[3,2-d]pyrimidin-6-amine]
355 nM	C=C(C)c1ncnc2c(S(=O)(=O)c3ccccc3)c(N)[nH]c12 [Example 12, 7-(benzenesulfonyl)-4-(prop-1-en-2-yl)-5H-pyrrolo[3,2-d]pyrimidin-6-amine]
447 nM	CCN(C)c1ncnc2c(S(=O)(=O)c3ccccc3)c(N)[nH]c12 [Example 97, 7-(benzenesulfonyl)-4-N-ethyl-4-N-methyl-5H-pyrrolo[3,2-d]pyrimidine-4,6-diamine]
31 nM	Cc1nc(N2CCCC(C)C2)c2[nH]c(N)c(S(=O)(=O)c3cccc(F)c3)c2n1 (stereo not shown) [Example 198, 7-(3-fluorobenzenesulfonyl)-2-methyl-4-(3-methylpiperidin-1-yl)-5H-pyrrolo[3,2-d]pyrimidin-6-amine]
43 nM	Cc1nc(N2CCOC(C)(C)C2)c2[nH]c(N)c(S(=O)(=O)c3cccc(F)c3)c2n1 [Example 191, 4-(2,2-dimethylmorpholin-4-yl)-7-(3-fluorobenzenesulfonyl)-2-methyl-5H-pyrrolo[3,2-d]pyrimidin-6-amine]
173 nM	Cc1nc(C2CCC(F)(F)CC2)c2[nH]c(N)c(S(=O)(=O)c3ccccc3)c2n1 [Example 183, 7-(benzenesulfonyl)-4-(4,4-difluorocyclohexyl)-2-methyl-5H-pyrrolo[3,2-d]pyrimidin-6-amine]
6 nM	Cc1nc(N2CCOC(C)(C)C2)c2[nH]c(N)c(S(=O)(=O)c3ccc(F)cc3F)c2n1 [Example 278, 7-(2,4-difluorobenzenesulfonyl)-4-(2,2-dimethylmorpholin-4-yl)-2-methyl-5H-pyrrolo[3,2-d]pyrimidin-6-amine]
1890 nM	Nc1[nH]c2c(OCC3CCOCC3)ncnc2c1S(=O)(=O)c1ccccc1 [Example 169, 7-(benzenesulfonyl)-4-(oxan-4-ylmethoxy)-5H-pyrrolo[3,2-d]pyrimidin-6-amine]
80 nM	Nc1[nH]c2c(N3CCC(OCC4CC4)CC3)ncnc2c1S(=O)(=O)c1ccccc1 [Example 116, 7-(benzenesulfonyl)-4-[4-(cyclopropylmethoxy)piperidin-1-yl]-5H-pyrrolo[3,2-d]pyrimidin-6-amine]
676 nM	Cc1cc(F)ccc1S(=O)(=O)c1c(N)[nH]c2c(N3CCOC(C)C3)ncnc12 (stereo not shown) [Example 178, 7-(4-fluoro-2-methylbenzenesulfonyl)-4-(2-methylmorpholin-4-yl)-5H-pyrrolo[3,2-d]pyrimidin-6-amine]

EC50	Structure (SMILES)
3 nM	COc1ccc(S(=O)(=O)c2c(N)[nH]c3c(N4CCO[C@@H](C)C4)nc(C)nc23)c(F)c1 [Example 233, 7-(2-fluoro-4-methoxybenzenesulfonyl)-2-methyl-4-[(2S)-2-methylmorpholin-4-yl]-5H-pyrrolo[3,2-d]pyrimidin-6-amine]
16 nM	Cc1nc(N2CCO[C@H](C)[C@H]2C)c2[nH]c(N)c(S(=O)(=O)c3ccccc3F)c2n1 [Example 276, 4-[(RR,SS)-2,3-dimethylmorpholin-4-yl]-7-(2-fluorobenzenesulfonyl)-2-methyl-5H-pyrrolo[3,2-d]pyrimidin-6-amine]
11 nM	CC(Oc1ncnc2c(S(=O)(=O)c3ccccc3)c(N)[nH]c12)C1CCCC1 (stereo not shown) [Example 212, 7-(benzenesulfonyl)-4-(1-cyclopentylethoxy)-5H-pyrrolo[3,2-d]pyrimidin-6-amine]
125 nM	Nc1[nH]c2c(N(CC3CC3)CC3CCCO3)ncnc2c1S(=O)(=O)c1ccccc1 (stereo not shown) [Example 63, 7-(benzenesulfonyl)-4-N-(cyclopropylmethyl)-4-N-(oxolan-2-ylmethyl)-5H-pyrrolo[3,2-d]pyrimidine-4,6-diamine]
1 nM	Cc1nc(N2CCO[C@H](C(F)(F)F)C2)c2[nH]c(N)c(S(=O)(=O)c3ccc(F)cc3F)c2n1 [Example 283, 7-(2,4-difluorobenzenesulfonyl)-2-methyl-4-[(2S)-2-(trifluoromethyl)morpholin-4-yl]-5H-pyrrolo[3,2-d]pyrimidin-6-amine]
15 nM	Cc1cccc(-c2ncnc3c(S(=O)(=O)c4ccccc4)c(N)[nH]c23)c1 [Example 57, 7-(benzenesulfonyl)-4-(3-methylphenyl)-5H-pyrrolo[3,2-d]pyrimidin-6-amine]
209 nM	Cc1nc(OC2CCOC2(C)C)c2[nH]c(N)c(S(=O)(=O)c3ccccc3)c2n1 (stereo not shown) [Example 258, 7-(benzenesulfonyl)-4-[(2,2-dimethyloxolan-3-yl)oxy]-2-methyl-5H-pyrrolo[3,2-d]pyrimidin-6-amine]
2 nM	Cc1nc(N2CCO[C@@H](C)C2)c2[nH]c(N)c(S(=O)(=O)c3ccc(Cl)cc3F)c2n1 [Example 235, 7-(4-chloro-2-fluorobenzenesulfonyl)-2-methyl-4-[(2S)-2-methylmorpholin-4-yl]-5H-pyrrolo[3,2-d]pyrimidin-6-amine]
54 nM	Nc1[nH]c2c(C3=CCCCC3)ncnc2c1S(=O)(=O)c1ccc(Cl)cc1 [Example 21, 7-[(4-chlorobenzene)sulfonyl]-4-(cyclohex-1-en-1-yl)-5H-pyrrolo[3,2-d]pyrimidin-6-amine]
8 nM	Cc1nc(N2CCOC(C)C2)c2[nH]c(N)c(S(=O)(=O)c3ccccc3F)c2n1 (stereo not shown) [Example 176, 7-(2-fluorobenzenesulfonyl)-2-methyl-4-(2-methylmorpholin-4-yl)-5H-pyrrolo[3,2-d]pyrimidin-6-amine]
528 nM	Nc1[nH]c2c(C3=CCCCC3)nccc2c1S(=O)(=O)c1ccccc1 [Example 18, 3-(benzenesulfonyl)-7-(cyclohex-1-en-1-yl)-1H-pyrrolo[2,3-c]pyridin-2-amine]
45 nM	CSc1nc(N2CCOC(C)C2)c2[nH]c(N)c(S(=O)(=O)c3cccc(F)c3)c2n1 (stereo not shown) [Example 264, 7-(3-fluorobenzenesulfonyl)-4-(2-methylmorpholin-4-yl)-2-(methylsulfanyl)-5H-pyrrolo[3,2-d]pyrimidin-6-amine]
235 nM	Nc1[nH]c2c(C3=CCCCC3)ncnc2c1Sc1ccccc1 [Example 135, 4-(cyclohex-1-en-1-yl)-7-(phenylsulfanyl)-5H-pyrrolo[3,2-d]pyrimidin-6-amine]
51 nM	Cc1nc(OC(C)C)c2[nH]c(N)c(S(=O)(=O)c3ccccc3)c2n1 [Example 242, 7-(benzenesulfonyl)-2-methyl-4-(propan-2-yloxy)-5H-pyrrolo[3,2-d]pyrimidin-6-amine]
11 nM	Nc1[nH]c2c(C3CCCCC3)ncnc2c1S(=O)(=O)c1ccccc1F [Example 89, 4-cyclohexyl-7-(2-fluorobenzenesulfonyl)-5H-pyrrolo[3,2-d]pyrimidin-6-amine]
5 nM	CNc1nc(N2CCOC(C)C2)c2[nH]c(N)c(S(=O)(=O)c3ccccc3F)c2n1 (stereo not shown) [Example 298, 7-(2-fluorobenzenesulfonyl)-N2-methyl-4-(2-methylmorpholin-4-yl)-5H-pyrrolo[3,2-d]pyrimidine-2,6-diamine]
104 nM	CCC1(C)CN(c2ncnc3c(S(=O)(=O)c4ccccc4)c(N)[nH]c23)CCO1 (stereo not shown) [Example 221, 7-(benzenesulfonyl)-4-(2-ethyl-2-methylmorpholin-4-yl)-5H-pyrrolo[3,2-d]pyrimidin-6-amine]
34 nM	Nc1[nH]c2c(OC3CCC(F)(F)CC3)ncnc2c1S(=O)(=O)c1ccccc1 [Example 211, 7-(benzenesulfonyl)-4-[(4,4-difluorocyclohexyl)oxy]-5H-pyrrolo[3,2-d]pyrimidin-6-amine]
